Laboratory results published in paper PMC8909834, “An Orally Bioavailable and Highly Efficacious Inhibitor of CDK9/FLT3 for the Treatment of Acute Myeloid Leukemia” (Cancers, 2022).

Columns and labels:
Test in all cases: Kinase Hotspot radiolabel assay
Type in all cases: biochemical
Details in all cases: read-out: % Residual Activity
[1] = biological target: T1, SGK2 (Homo sapiens, UniProt Q9HBY8)
T1 construct: purchased Reaction Biology Corporation (Kinase HotSpot)
Outline: (§1)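 Inhibition measured by a radiolabel Hotspot kinase assay as part of a 369-kinase specificity panel, with the compound at 1 µM. Kinases inhibited by more than 90% went on to Ki determination.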

[2] = biological target: T2, STK32C/YANK3 (Homo sapiens, UniProt Q86UX6)
T2 construct: purchased Reaction Biology Corporation (Kinase HotSpot)
Outline: as §1

[3] = biological target: T3, CDK4/cyclin D1 (Homo sapiens, UniProt P11802)
T3 construct: purchased Reaction Biology Corporation (Kinase HotSpot)
Outline: as §1

[4] = biological target: T4, FGFR4 (Homo sapiens, UniProt P22455)
T4 construct: purchased Reaction Biology Corporation (Kinase HotSpot)
T4 sequence (P22455 22-802): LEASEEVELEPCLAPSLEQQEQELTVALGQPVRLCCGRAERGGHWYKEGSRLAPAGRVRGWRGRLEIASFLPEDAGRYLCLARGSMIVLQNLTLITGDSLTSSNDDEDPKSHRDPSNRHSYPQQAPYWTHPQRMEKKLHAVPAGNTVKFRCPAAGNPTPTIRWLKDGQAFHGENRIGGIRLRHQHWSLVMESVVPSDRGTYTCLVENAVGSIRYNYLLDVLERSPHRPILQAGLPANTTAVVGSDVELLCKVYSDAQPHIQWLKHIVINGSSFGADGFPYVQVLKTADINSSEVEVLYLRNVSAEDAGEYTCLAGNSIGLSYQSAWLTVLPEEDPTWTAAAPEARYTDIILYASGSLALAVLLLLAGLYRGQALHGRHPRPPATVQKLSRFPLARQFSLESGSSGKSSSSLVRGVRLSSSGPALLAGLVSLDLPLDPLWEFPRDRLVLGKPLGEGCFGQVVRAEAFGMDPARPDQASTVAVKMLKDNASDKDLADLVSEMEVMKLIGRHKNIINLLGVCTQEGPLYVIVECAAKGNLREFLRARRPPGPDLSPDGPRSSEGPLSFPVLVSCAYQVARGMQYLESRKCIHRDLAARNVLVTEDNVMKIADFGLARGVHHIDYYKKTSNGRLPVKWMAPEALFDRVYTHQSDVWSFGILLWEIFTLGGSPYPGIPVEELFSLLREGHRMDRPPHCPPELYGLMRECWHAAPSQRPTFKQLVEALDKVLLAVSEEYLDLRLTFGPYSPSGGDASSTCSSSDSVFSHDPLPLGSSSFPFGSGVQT
Outline: as §1

[5] = biological target: T5, PKA (Homo sapiens, UniProt P17612)
T5 construct: purchased Reaction Biology Corporation (Kinase HotSpot)
Outline: as §1

[6] = biological target: T6, CAMKK1 (Homo sapiens, UniProt Q8N5S9)
T6 construct: purchased Reaction Biology Corporation (Kinase HotSpot)
Outline: as §1

[7] = biological target: T7, EPHA1 (Homo sapiens, UniProt P21709)
T7 construct: purchased Reaction Biology Corporation (Kinase HotSpot)
Outline: as §1

[8] = biological target: T8, SSTK/TSSK6 (Homo sapiens, UniProt Q9BXA6)
T8 construct: purchased Reaction Biology Corporation (Kinase HotSpot)
T8 sequence (Q9BXA6 whole entry): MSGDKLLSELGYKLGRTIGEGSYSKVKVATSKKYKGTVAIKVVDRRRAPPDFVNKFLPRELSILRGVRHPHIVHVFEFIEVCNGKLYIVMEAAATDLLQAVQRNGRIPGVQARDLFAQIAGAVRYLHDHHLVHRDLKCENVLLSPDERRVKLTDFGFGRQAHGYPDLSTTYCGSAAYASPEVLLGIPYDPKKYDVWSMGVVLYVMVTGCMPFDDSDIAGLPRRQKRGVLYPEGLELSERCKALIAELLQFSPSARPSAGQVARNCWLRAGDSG
Outline: as §1

[9] = biological target: T9, ALK (Homo sapiens, UniProt Q9UM73)
T9 construct: purchased Reaction Biology Corporation (Kinase HotSpot)
Outline: as §1

[10] = biological target: T10, STK21/CIT (Homo sapiens, UniProt O14578)
T10 construct: purchased Reaction Biology Corporation (Kinase HotSpot)
Outline: as §1

[11] = biological target: T11, PKAcg (Homo sapiens, UniProt P22612)
T11 construct: purchased Reaction Biology Corporation (Kinase HotSpot)
Outline: as §1

[12] = biological target: T12, CAMK2b (Homo sapiens, UniProt Q13554)
T12 construct: purchased Reaction Biology Corporation (Kinase HotSpot)
T12 sequence (Q13554 whole entry): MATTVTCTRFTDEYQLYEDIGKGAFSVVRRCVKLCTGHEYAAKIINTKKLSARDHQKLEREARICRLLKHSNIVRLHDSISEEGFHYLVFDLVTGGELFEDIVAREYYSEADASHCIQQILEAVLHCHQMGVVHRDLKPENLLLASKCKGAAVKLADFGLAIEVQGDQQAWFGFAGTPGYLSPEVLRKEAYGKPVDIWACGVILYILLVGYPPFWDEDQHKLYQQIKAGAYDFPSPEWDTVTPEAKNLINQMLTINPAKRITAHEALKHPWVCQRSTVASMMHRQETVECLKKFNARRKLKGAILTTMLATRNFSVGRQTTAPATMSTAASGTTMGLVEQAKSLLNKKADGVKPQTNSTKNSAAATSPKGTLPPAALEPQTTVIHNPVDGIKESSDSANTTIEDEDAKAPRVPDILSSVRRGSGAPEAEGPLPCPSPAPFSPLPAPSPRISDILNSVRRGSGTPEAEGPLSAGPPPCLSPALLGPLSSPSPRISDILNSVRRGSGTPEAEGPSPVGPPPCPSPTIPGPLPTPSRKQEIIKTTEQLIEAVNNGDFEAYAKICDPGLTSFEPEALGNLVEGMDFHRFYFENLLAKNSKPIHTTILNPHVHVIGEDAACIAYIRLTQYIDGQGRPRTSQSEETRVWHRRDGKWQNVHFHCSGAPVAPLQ
Outline: as §1

[13] = biological target: T13, PKG2/PRKG2 (Homo sapiens, UniProt Q13237)
T13 construct: purchased Reaction Biology Corporation (Kinase HotSpot)
Outline: as §1

[14] = biological target: T14, CDK1/cyclin B (Homo sapiens, UniProt P06493)
T14 construct: purchased Reaction Biology Corporation (Kinase HotSpot)
Outline: as §1

[15] = biological target: T15, CAMK2a (Homo sapiens, UniProt Q9UQM7)
T15 construct: purchased Reaction Biology Corporation (Kinase HotSpot)
T15 sequence (Q9UQM7 whole entry): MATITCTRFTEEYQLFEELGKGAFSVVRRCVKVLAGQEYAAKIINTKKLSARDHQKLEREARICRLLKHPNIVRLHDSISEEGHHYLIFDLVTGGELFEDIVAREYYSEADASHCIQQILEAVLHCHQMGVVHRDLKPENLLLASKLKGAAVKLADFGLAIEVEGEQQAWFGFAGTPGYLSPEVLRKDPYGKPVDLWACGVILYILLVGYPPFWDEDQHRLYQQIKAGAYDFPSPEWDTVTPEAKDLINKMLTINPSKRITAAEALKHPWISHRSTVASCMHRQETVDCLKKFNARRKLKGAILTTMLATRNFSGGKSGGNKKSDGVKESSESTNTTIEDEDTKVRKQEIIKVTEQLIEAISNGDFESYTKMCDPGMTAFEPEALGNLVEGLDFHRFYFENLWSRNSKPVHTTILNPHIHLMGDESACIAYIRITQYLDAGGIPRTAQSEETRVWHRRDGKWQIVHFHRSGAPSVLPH
Outline: as §1

[16] = biological target: T16, CAMK4 (Homo sapiens, UniProt Q16566)
T16 construct: purchased Reaction Biology Corporation (Kinase HotSpot)
Outline: as §1

[17] = biological target: T17, FRK/PTK5 (Homo sapiens, UniProt P42685)
T17 construct: purchased Reaction Biology Corporation (Kinase HotSpot)
T17 sequence (P42685 whole entry): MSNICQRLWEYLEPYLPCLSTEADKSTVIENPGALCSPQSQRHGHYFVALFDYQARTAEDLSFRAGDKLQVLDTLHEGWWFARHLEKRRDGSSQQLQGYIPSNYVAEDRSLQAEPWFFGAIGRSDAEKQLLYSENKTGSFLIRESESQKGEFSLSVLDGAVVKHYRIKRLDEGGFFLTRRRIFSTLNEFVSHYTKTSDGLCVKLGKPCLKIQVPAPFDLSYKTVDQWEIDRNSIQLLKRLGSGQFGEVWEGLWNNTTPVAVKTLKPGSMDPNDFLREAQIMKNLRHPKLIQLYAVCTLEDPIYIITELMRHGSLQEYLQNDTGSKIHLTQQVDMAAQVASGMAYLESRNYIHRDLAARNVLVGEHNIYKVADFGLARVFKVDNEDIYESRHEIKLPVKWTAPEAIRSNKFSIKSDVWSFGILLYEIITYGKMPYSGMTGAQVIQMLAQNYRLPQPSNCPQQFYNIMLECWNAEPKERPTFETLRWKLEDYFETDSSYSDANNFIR
Outline: as §1

[18] = biological target: T18, WNK2 (Homo sapiens, UniProt Q9Y3S1)
T18 construct: purchased Reaction Biology Corporation (Kinase HotSpot)
Outline: as §1

[19] = biological target: T19, AXL (Homo sapiens, UniProt P30530)
T19 construct: purchased Reaction Biology Corporation (Kinase HotSpot)
Outline: as §1

[20] = biological target: T20, MYLK3 (Homo sapiens, UniProt Q32MK0)
T20 construct: purchased Reaction Biology Corporation (Kinase HotSpot)
Outline: as §1

[21] = biological target: T21, IRR/INSRR (Homo sapiens, UniProt P14616)
T21 construct: purchased Reaction Biology Corporation (Kinase HotSpot)
Outline: as §1

[22] = biological target: T22, MLK3/MAP3K11 (Homo sapiens, UniProt Q16584)
T22 construct: purchased Reaction Biology Corporation (Kinase HotSpot)
T22 sequence (Q16584 whole entry): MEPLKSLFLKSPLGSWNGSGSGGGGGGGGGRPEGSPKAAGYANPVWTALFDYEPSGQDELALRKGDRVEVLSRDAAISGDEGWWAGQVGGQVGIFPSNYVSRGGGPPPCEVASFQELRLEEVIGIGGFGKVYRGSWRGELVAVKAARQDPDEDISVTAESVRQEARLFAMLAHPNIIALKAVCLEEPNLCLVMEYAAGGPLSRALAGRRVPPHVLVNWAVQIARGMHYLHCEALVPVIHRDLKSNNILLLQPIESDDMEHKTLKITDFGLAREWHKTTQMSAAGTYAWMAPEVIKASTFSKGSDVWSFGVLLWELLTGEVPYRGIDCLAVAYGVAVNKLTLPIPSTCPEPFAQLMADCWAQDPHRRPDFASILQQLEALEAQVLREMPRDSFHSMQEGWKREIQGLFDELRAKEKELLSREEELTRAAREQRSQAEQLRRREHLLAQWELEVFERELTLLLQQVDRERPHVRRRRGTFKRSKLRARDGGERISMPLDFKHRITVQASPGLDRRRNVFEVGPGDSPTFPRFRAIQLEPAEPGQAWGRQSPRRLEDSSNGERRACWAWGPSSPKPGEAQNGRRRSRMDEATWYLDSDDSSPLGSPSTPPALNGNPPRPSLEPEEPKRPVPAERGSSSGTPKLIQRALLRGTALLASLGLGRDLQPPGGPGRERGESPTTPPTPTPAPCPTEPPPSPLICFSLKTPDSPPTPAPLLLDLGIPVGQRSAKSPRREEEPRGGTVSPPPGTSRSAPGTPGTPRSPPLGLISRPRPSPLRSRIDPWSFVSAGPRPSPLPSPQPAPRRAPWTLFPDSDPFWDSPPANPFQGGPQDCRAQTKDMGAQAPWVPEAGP
Outline: as §1

[23] = biological target: T23, GSK3a (Homo sapiens, UniProt P49840)
T23 construct: purchased Reaction Biology Corporation (Kinase HotSpot)
Outline: as §1

[24] = biological target: T24, RIPK5 (Homo sapiens, UniProt Q6XUX3)
T24 construct: purchased Reaction Biology Corporation (Kinase HotSpot)
Outline: as §1

[25] = biological target: T25, TYRO3/SKY (Homo sapiens, UniProt Q06418)
T25 construct: purchased Reaction Biology Corporation (Kinase HotSpot)
Outline: as §1

[26] = biological target: T26, PIM2 (Homo sapiens, UniProt Q9P1W9)
T26 construct: purchased Reaction Biology Corporation (Kinase HotSpot)
T26 sequence (Q9P1W9 whole entry): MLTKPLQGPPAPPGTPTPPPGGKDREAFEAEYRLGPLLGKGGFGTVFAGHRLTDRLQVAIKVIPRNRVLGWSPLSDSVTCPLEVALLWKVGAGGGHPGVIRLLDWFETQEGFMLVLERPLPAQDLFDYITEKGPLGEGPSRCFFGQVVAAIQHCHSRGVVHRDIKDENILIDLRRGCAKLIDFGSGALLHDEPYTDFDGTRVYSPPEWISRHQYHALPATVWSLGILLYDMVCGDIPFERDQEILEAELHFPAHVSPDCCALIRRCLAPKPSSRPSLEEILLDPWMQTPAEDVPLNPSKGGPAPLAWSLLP
Outline: as §1

[27] = biological target: T27, GRK6 (Homo sapiens, UniProt P43250)
T27 construct: purchased Reaction Biology Corporation (Kinase HotSpot)
Outline: as §1

[28] = biological target: T28, AKT1 (Homo sapiens, UniProt P31749)
T28 construct: purchased Reaction Biology Corporation (Kinase HotSpot)
T28 sequence (P31749 whole entry): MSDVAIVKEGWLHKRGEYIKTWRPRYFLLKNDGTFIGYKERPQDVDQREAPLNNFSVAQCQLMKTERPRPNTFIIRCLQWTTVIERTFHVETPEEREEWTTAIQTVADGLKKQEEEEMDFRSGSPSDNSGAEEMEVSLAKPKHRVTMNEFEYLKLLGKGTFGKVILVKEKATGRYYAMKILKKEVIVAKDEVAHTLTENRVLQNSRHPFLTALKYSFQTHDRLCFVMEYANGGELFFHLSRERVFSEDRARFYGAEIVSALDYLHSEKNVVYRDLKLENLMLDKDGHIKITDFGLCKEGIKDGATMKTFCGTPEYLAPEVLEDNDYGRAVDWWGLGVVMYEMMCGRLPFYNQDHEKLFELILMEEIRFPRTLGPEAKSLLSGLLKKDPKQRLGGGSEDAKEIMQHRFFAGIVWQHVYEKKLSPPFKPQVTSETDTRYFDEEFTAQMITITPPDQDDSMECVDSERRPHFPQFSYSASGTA
Outline: as §1

[29] = biological target: T29, PKN2/PRK2 (Homo sapiens, UniProt Q16513)
T29 construct: purchased Reaction Biology Corporation (Kinase HotSpot)
Outline: as §1

[30] = biological target: T30, DAPK2 (Homo sapiens, UniProt Q9UIK4)
T30 construct: purchased Reaction Biology Corporation (Kinase HotSpot)
T30 sequence (Q9UIK4 whole entry): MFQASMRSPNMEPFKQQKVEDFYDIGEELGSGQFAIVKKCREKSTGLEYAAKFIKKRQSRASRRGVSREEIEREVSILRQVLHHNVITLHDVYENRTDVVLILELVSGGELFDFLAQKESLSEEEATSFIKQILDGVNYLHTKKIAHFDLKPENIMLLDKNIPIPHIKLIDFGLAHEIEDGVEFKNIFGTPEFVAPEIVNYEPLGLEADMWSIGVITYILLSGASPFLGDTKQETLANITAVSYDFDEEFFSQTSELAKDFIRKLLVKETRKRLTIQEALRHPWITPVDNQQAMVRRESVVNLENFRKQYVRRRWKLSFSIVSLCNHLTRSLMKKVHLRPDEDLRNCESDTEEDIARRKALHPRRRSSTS
Outline: as §1

Q: Which results are given for Cc1cnc(N[C@H]2CC[C@H](N)CC2)nc1-c1cnc2ccc(-c3ccccc3)cn12 [CDDD11-8]?
A: remaining activity at 1 µM [1]: 113%; remaining activity at 1 µM [2]: 91.1%; remaining activity at 1 µM [3]: 89.3%; remaining activity at 1 µM [4]: 104%; remaining activity at 1 µM [5]: 95.3%; remaining activity at 1 µM [6]: 76.5%; remaining activity at 1 µM [7]: 93.1%; remaining activity at 1 µM [8]: 79.1%; remaining activity at 1 µM [9]: 68.9%; remaining activity at 1 µM [10]: 85.9%; remaining activity at 1 µM [11]: 86.7%; remaining activity at 1 µM [12]: 23.5%; remaining activity at 1 µM [13]: 87%; remaining activity at 1 µM [14]: 69.5%; remaining activity at 1 µM [15]: 20.3%; remaining activity at 1 µM [16]: 97.3%; remaining activity at 1 µM [17]: 97.1%; remaining activity at 1 µM [18]: 94.5%; remaining activity at 1 µM [19]: 44.4%; remaining activity at 1 µM [20]: 99.7%; remaining activity at 1 µM [21]: 101%; remaining activity at 1 µM [22]: 45.1%; remaining activity at 1 µM [23]: 70.1%; remaining activity at 1 µM [24]: 93%; remaining activity at 1 µM [25]: 82.2%; remaining activity at 1 µM [26]: 94.5%; remaining activity at 1 µM [27]: 98.5%; remaining activity at 1 µM [28]: 95%; remaining activity at 1 µM [29]: 88.3%; remaining activity at 1 µM [30]: 81.2%
